Assay results: publication PMC4232042 (Drug Design, Development and Therapy, 2014)

Target: Kv1.5 (Homo sapiens, UniProt P22460)
Test: whole-cell patch clamp in HEK […] cells stably expressing Kv1.[…]
Format: cell-based

Kv1.5, sequence (P22460 whole entry): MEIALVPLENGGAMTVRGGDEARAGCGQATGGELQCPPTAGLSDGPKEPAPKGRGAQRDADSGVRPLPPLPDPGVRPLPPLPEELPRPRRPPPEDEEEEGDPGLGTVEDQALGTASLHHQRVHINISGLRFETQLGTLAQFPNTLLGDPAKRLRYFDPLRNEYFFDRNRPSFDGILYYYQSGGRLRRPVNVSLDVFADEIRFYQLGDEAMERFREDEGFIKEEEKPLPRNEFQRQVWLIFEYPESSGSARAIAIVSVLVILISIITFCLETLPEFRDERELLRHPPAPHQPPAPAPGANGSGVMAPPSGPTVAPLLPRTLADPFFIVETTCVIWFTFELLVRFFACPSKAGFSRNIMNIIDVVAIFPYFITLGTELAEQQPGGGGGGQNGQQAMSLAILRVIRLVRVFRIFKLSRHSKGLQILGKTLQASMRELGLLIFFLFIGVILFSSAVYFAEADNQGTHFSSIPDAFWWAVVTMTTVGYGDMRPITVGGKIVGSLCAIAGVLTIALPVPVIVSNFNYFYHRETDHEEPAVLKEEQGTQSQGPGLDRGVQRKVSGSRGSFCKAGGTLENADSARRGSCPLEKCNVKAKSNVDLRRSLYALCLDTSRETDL

Cc1ncc2n1-c1ccc(Cl)cc1C(c1ccccc1F)=NC2 [midazolam] gave an IC50 of 17 ± 4.2 µM.
